Read-outs that look alike come from different tables or passages of the source.
Assays:
Test in all cases: PTP IC50 assay, pNPP or FDP as substrate
Format in all cases: biochemical
PTP SHP2 = target: T1, PTP SHP2 (Homo sapiens, UniProt Q06124)
T1 construct: The catalytic domain was amplified using the following oligonucleotides; made in house; host or cells: Sf-9 insect cells (pFastBac-G2T)
T1 sequence (Q06124 247-517 limits assumed): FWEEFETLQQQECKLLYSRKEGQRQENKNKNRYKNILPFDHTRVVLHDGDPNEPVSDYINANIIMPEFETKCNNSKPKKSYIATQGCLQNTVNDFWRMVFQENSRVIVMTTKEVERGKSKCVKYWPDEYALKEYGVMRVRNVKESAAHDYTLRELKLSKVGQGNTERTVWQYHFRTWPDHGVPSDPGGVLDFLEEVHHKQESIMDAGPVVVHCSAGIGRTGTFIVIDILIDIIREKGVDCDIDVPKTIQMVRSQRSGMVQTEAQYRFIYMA
Method: (§1) The following in vitro assay procedure is preferred to determine the level of activity and effect of the different compounds of the present invention on one or more of the PTPs. Similar assays can be designed along the same lines for any PTP using techniques well known in the art.
(§2) The catalytic assays described herein are performed in a 96-well format. The general procedure begins with the determination of PTP optimal pH using a three-component buffer system that minimizes ionic strength variations across a wide range of buffer pH. Next, the Michaelis-Menten constant, or Km, is determined for each specific substrate-PTP system. This Km value is subsequently used as the substrate reaction concentration for compound screening. Finally, the test PTP is exposed to varying concentrations of compound for fifteen minutes and allowed to react with substrate for ten minutes. The results are plotted as percent inhibition versus compound concentration and the IC50 interpolated from the plot.
(§3) All assays were performed using pNPP or FDP as substrate. The optimum pH was determined for each PTP used.
(§4) PTPase activity was assayed at 25° C. in a 100-μl reaction mixture containing an appropriate concentration of pNPP or FDP as substrate. The reaction was initiated by addition of the PTP and quenched after 10 min by addition of 50 μl of IN NaOH. The non-enzymatic hydrolysis of the substrate was corrected by measuring the control without the addition of the enzyme. The amount of p-nitrophenol produced was determined from the absorbance at 410 nm. To determine the kinetic parameter, Km, the initial velocities were measured at various substrate concentrations and the data were fitted to the Michaelis equation where velocity=(Vmax*[S])/(Km+[S]), and [S]=substrate reaction concentration.
(§5) The effect of the compounds on PTP was evaluated at 25° C. using pNPP or FDP as substrate. PTP was pre-incubated for fifteen minutes with various concentrations of compound. Substrate was then added at a fixed concentration (usually equal to the Km previously calculated). After 10 minutes, NaOH was added to stop the reaction. The hydrolysis of pNPP was followed at 410 nm on the Biotek Powerwave 200 microplate scanning spectrophotometer. The percent inhibition was calculated as follows: Percent Inhibition=[(control signal−compound signal)/control signal] ×100%. The IC50 was then determined by interpolation of a percent inhibition versus compound concentration plot.
(§6) Plasmids designed for bacterial GST-PTP fusion protein expression were derived by insertion of PCR-generated human PTP fragments into pGEX vectors (Pharmacia Biotech). Several of these constructs were then used to subclone phosphatases into pFastBac-1for expression in Sf-9 insect cells. Oligonucleotides used for the initial amplification of PTP genes are shown below. The cDNAs were prepared using the Gilbo BRL superscript preamplification system on RNAs purchased from Clontech.
SHP-2 cDNA was used as described earlier (Vogel W., et al.,1993, Science, 259:1611-4). The catalytic domain was amplified using the following oligonucleotides 5′oligo: 5′-[…]-3′ (SEQ ID NO: 2) 3′oligo: 5′-[…]-3′ (SEQ ID NO: 3) and subsequently subcloned into BamH1-Xba-1 sites. It was then ligated into pfas Bac-G2T BamH1-Xba-1 sites.

PTP 1B = target: T2, PTP 1B (Homo sapiens, UniProt P18031)
T2 construct: made in house; host or cells: Sf-9 insect cells (pFastBac-G2T)
T2 sequence (P18031 1-435): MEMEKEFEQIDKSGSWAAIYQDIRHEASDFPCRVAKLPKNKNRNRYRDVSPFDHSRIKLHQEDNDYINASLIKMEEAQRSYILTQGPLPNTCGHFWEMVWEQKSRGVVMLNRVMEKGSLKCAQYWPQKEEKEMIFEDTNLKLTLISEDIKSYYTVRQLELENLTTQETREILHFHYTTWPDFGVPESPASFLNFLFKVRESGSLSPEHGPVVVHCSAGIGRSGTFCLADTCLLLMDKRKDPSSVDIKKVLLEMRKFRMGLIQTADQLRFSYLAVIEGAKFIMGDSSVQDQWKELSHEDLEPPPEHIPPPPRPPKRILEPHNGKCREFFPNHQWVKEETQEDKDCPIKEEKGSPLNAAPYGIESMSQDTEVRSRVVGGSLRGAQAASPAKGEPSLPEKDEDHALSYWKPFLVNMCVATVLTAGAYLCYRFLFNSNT
Method: as §1, §2, §3, §4, §5, §6
The PTP1b cDNA was amplified from human placenta single strand cDNA (Clontech RNA) using the following oligonucleotides: 5′oligo: 5′-[…] (SEQ ID NO: 4) 3′oligo: 5′-[…] (SEQ ID NO: 5) It was subsequently ligated into pFasBac G2TBamH1Xba-1 sites.

PTP EPSILON = target: T3, PTP EPSILON (Homo sapiens, UniProt P23469)
T3 construct: made in house; host or cells: Sf-9 insect cells (pFastBac-G2T); a pGEX 6P-1 construct also existed
Method: as §1, §2, §3, §4, §5, §6
The PTPepsilon cDNA was amplified from human placenta single-strand cDNA (Clontech RNA) using the following oligonucleotides: 5′oligo: 5′-[…]-3′ (SEQ ID NO: 6) 3′oligo: 5′-[…]-3′ (SEQ ID NO: 7) After cloning this PCR product into the Bam HI/Xho I sites of pGEX 6P-1, this phosphatase was subcloned using the same restriction sites in pFastBac-G2T.

PTP MU = target: T4, PTP MU (Homo sapiens, UniProt P28827)
T4 construct: made in house; host or cells: E. coli BL-21 (pGEX 6P-1)

[1] = pNPP or FDP as substrate, 25° C., read-out: PTP IC50 SHP2
[2] = pNPP or FDP as substrate, 25° C., read-out: PTP IC50 1B
[3] = pNPP or FDP as substrate, 25° C., read-out: PTP IC50 Epilson
[4] = pNPP or FDP as substrate, 25° C., read-out: PTP IC50 Mu
[5] = comparison of R groups, read-out: IC50 SHP2
[6] = comparison of R groups, read-out: IC50 1B
[7] = comparison of R groups, read-out: IC50 Epsilon
[8] = comparison of R groups, read-out: IC50 Mu

T3 sequence (P23469 80-393 limits assumed): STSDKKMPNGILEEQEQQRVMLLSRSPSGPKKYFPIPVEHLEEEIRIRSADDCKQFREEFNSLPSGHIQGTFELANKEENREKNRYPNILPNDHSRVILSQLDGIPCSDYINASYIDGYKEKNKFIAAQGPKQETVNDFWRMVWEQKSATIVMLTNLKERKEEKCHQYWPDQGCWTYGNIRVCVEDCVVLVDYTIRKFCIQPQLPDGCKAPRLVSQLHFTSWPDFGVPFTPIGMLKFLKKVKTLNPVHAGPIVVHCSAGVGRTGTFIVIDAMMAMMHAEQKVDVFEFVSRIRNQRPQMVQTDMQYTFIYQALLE
T4 sequence (P28827 831-1186 limits assumed): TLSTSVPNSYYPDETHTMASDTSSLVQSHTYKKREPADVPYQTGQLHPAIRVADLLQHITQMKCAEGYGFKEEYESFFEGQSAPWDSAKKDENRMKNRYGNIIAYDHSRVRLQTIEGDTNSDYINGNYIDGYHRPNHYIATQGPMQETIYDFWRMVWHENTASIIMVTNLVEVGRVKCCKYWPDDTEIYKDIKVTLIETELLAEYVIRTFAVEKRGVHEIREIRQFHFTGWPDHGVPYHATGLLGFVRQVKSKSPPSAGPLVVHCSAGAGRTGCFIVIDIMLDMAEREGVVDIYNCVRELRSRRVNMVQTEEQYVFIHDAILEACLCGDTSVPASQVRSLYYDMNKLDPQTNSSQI

| SMILES | IC50 (PTP SHP2; [1]) [µM] | IC50 (PTP 1B; [2]) [µM] | IC50 (PTP EPSILON; [3]) [µM] | IC50 (PTP MU; [4]) [µM] | IC50 (PTP SHP2; [5]) [µM] | IC50 (PTP 1B; [6]) [µM] | IC50 (PTP EPSILON; [7]) [µM] | IC50 (PTP MU; [8]) [µM] |
| --- | --- | --- | --- | --- | --- | --- | --- | --- |
| O=S(=O)(Nc1ccc(CCc2ccc(NS(=O)(=O)C(F)(F)F)cc2)cc1)C(F)(F)F [Example 66, 1,2-Bis(4-trifluoromethylsulfonamidophenyl)ethane] | 36.6 | 60.4 | > 100 | 70.9 | – | – | – | – |
| Cc1cc(NS(=O)(=O)C(F)(F)F)ccc1CCc1ccc(NS(=O)(=O)C(F)(F)F)cc1C [Example 67, 1,2-Bis(2-methyl-4-trifluoromethylsulfonamidophenyl)ethane] | 17 | 35 | 50.8 | 41.3 | – | – | – | – |
| CC(C)(COc1ccc(NS(=O)(=O)C(F)(F)F)cc1)COc1ccc(NS(=O)(=O)C(F)(F)F)cc1 [Example 68, 1,3-Bis(4-trifluoromethylsulfonamidophenoxy)-2,2-dimethylpropane] | 6.2 | 44.6 | 37 | 42 | – | – | – | – |
| O=S(=O)(Nc1ccc(OCCCOc2ccc(NS(=O)(=O)C(F)(F)F)cc2)cc1)C(F)(F)F [Example 69, 1,3-Bis(4-trifluoromethylsulfonamidophenoxy)propane] | 20.3 | 78.9 | 40.7 | 37 | – | – | – | – |
| O=S(=O)(Nc1ccc(OCCCCOc2ccc(NS(=O)(=O)C(F)(F)F)cc2)cc1)C(F)(F)F [Example 70, 1,4-Bis(4-trifluoromethylsulfonamidophenoxy)butane] | 17.1 | 85 | 48.4 | 65.3 | – | – | – | – |
| O=S(=O)(Nc1ccc(Oc2ccc(Oc3ccc(NS(=O)(=O)C(F)(F)F)cc3)cc2)cc1)C(F)(F)F [Example 71, 1,4-Bis(4-trifluoromethylsulfonamidophenoxy)benzene] | 3.4 | 10.6 | 16.9 | – | 3.4 | 10.6 | 16.9 | 4 |
| O=S(=O)(Nc1ccc(Oc2ccc(NS(=O)(=O)C(F)(F)F)cc2)cc1)C(F)(F)F [Example 73, Bis(4-trifluoromethylsulfonamidophenyl) ether] | > 100 | > 100 | 23.1 | 76.1 | – | – | – | – |
| O=S(=O)(Nc1ccc(Oc2cccc(Oc3ccc(NS(=O)(=O)C(F)(F)F)cc3)c2)cc1)C(F)(F)F [Example 74, 1,3-Bis(4-trifluoromethylsulfonamidophenoxy)benzene] | 2.8 | 7.7 | 1.8 | 3.9 | – | – | – | – |
| O=S(=O)(Nc1ccc(-c2nnc(-c3ccc(NS(=O)(=O)C(F)(F)F)cc3)o2)cc1)C(F)(F)F [Example 75, 2,5-Bis(4-trifluoromethylsulfonamidophenyl)-(1,3,4)oxadiazole] | 8 | 8.4 | 11.5 | 32.4 | – | – | – | – |
| CC(C)(c1ccc(NS(=O)(=O)C(F)(F)F)cc1)c1ccc(C(C)(C)c2ccc(NS(=O)(=O)C(F)(F)F)cc2)cc1 [Example 76] | 1.8 | 2.5 | 8.4 | 6.7 | – | – | – | – |
| Nc1ccc(Oc2ccc(Oc3ccc(N)cc3)cc2)cc1 [NH2] | – | – | – | – | > 100 | > 100 | > 100 | > 100 |

Reference: patent publication US6596772B1, “Phosphate mimics and methods of treatment using phosphatase inhibitors” (Sugen, Inc., priority 1999, dated 2003)
